Patent US12606543B2, “Indole derivatives as serotonergic agents useful for the treatment of disorders related thereto” (priority 2023, dated 2026)

Tests used:
[1] = Liver microsomes stability, rat; assay type: in vitro ADME; conditions: rat liver microsomes; for half-life at 2 μM / microsomal CLint at 2 μM / CLint scaled at 2 μM: male; for half-life at 2 μM / microsomal CLint at 2 μM: 2 μM compound, 0.5 mg/mL microsomes; for CLint scaled at 2 μM: read-out: Scaled-up CLint
Method: (§1) The objective of this study was to estimate in vitro metabolic stability of exemplary compounds of Formula (I) or a pharmaceutically acceptable salt, solvate, and/or prodrug thereof in pooled human, male rat, and male mouse liver microsomes. The concentrations of compounds in reaction systems were evaluated by LC-MS/MS for estimating the stability in pooled human, male rat, and male mouse liver microsomes. The in vitro intrinsic clearances of test compounds were determined as well.
(§2) A master solution in the “Incubation Plate” containing phosphate buffer, ultra-pure H2O, MgCl2 solution and liver microsomes was made according to Table 33. The mixture was pre-warmed at 37° C. water bath for 5 minutes.
(§3) 40 μL of 10 mM nicotinamide adenine dinucleotide phosphate (NADPH) solution was added to each well. The final concentration of NADPH was 1 mM. The negative control samples were prepared by replacing NADPH with 40 μL of ultra-pure H2O. Samples were prepared in duplicate. Negative controls were prepared in singlet.
(§4) The reaction was started with the addition of 4 μL of 200 μM exemplary test compounds of the disclosure or control compounds to each master solution to get the final concentration of 2 μM. This study was performed in duplicate.
(§5) Aliquots of 50 μL were taken from the reaction solution at 0, 15, 30, 45, and 60 minutes. The reaction solutions were stopped by the addition of 4 volumes of cold methanol with IS (100 nM alprazolam, 200 nM imipramine, 200 nM labetalol, and 2 μM ketoprofen). Samples were centrifuged at 3,220 g for 40 minutes. Aliquot of 90 μL of the supernatant was mixed with 90 μL of ultra-pure H2O and then was used for LC-MS/MS analysis.
(§6) LC/MS analysis was performed for all samples from this study using a Shimadzu liquid chromatograph separation system equipped with degasser DGU-20A5R; solvent delivery unit LC-30AD; system controller SIL-30AC; column oven CTO-30A; CTC Analytics HTC PAL System. Mass spectrometric analysis was performed using a Triple Quad™ 5500 instrument.
(§7) All calculations were carried out using Microsoft Excel. Peak area ratios of test compound to internal standard (listed in the below table) were determined from extracted ion chromatograms.
(§8) All calculations were carried out using Microsoft Excel. Peak areas were determined from extracted ion chromatograms. The slope value, k, was determined by linear regression of the natural logarithm of the remaining percentage of the parent drug vs. incubation time curve.
(§9) The in vitro half-life (in vitro t1/2) was determined from the slope value:
(§10) Conversion of the in vitro t1/2 (min) into the in vitro intrinsic clearance (in vitro CLint, in μL/min/mg proteins) was done using the following equation (mean of duplicate determinations): […]
as §1, with “solvate” for “solvate,”, “rat” for “rat,”
(§11) A master solution in the “Incubation Plate” containing phosphate buffer, ultra-pure H2O, MgCl2 solution and liver microsomes was made according to Table 67. The mixture was pre-warmed at 37° C. water bath for 5 minutes.
(§12) 40 μL of 10 mM NADPH solution was added to each well. The final concentration of NADPH was 1 mM. The negative control samples were prepared by replacing NADPH with 40 μL of ultra-pure H2O. Samples were prepared in duplicate. Negative controls were prepared in singlet
(§13) Aliquots of 50 μL were taken from the reaction solution at 0, 15, 30, 45 and 60 minutes. The reaction solutions were stopped by the addition of 4 volumes of cold methanol with IS (100 nM alprazolam, 200 nM imipramine, 200 nM labetalol and 2 μM ketoprofen). […]

[2] = Liver microsomes stability, mouse; assay type: in vitro ADME; conditions: mouse liver microsomes; for half-life at 2 μM / microsomal CLint at 2 μM / CLint scaled at 2 μM: male; for half-life at 2 μM / microsomal CLint at 2 μM: pooled liver microsomes, 2 μM compound, 0.5 mg/mL microsomes; for CLint scaled at 2 μM: read-out: Scaled-up CLint
Method: as §1, §2, §3, §4, §5, §6, §7, §8, §9, §10
as §1, with “solvate” for “solvate,”, “rat” for “rat,”
as §11, §12, §13

[3] = Plasma protein binding by equilibrium dialysis, rat; conditions: for fraction unbound at 6 h, 1 μM: SD, plasma; for fraction unbound at 6 h, 1 μM / recovery at 6 h, 1 µM: rat; for recovery at 6 h, 1 µM: Sprague-Dawley (SD); for % Remaining @ 6 hours: rat plasma
Method: 1. The Frozen Plasma (Stored at −80° C.) was Thawed Immediately in a 37° C. Water Bath.
(§14) The working solution of test compounds and control compound was prepared in DMSO at the concentration of 200 μM, and then the working solution was spiked into plasma. The final concentration of compound was 1 μM. The final concentration of DMSO was 0.5%. Ketoconazole was used as positive control in the assay.
The dialysis membranes were soaked in ultrapure water for 60 minutes to separate strips, then in 20% ethanol for 20 minutes, finally in dialysis buffer for 20 minutes.
The dialysis set up was assembled according to the manufacturer's instruction. Each Cell was with 150 μL of plasma sample and dialyzed against equal volume of dialysis buffer (PBS). The assay was performed in duplicate. The dialysis plate was sealed and incubated in an incubator at 37° C. with 5% CO2 at 100 rpm for 6 hours. At the end of incubation, 50 μL of samples from both buffer and plasma chambers were transferred to wells of a 96-well plate.
50 μL of plasma was added to each buffer samples and an equal volume of PBS was supplemented to the collected plasma sample. 400 μL of precipitation buffer acetonitrile containing internal standards (IS, 200 nM labetalol, 100 nM tolbutamide and 100 nM ketoprofen) was added to precipitate protein and release compounds. Samples were vortexed for 2 minutes and centrifuged for 30 minutes at 3,220 g. Aliquot of 50 μL of the supernatant was diluted by 150 μL acetonitrile containing internal standards: ultra-pure H2O=1:1, and the mixture was used for LC-MS/MS analysis.
All calculations were carried out using Microsoft Excel. The concentrations of test compounds in the buffer and plasma chambers were determined from peak area ratios. The percentages of bound compound were calculated as follows: […]
as §14, with “[…].” for “μM.”

SMILES | half-life at 2 μM [1] | microsomal CLint at 2 μM [1] | CLint scaled at 2 μM [1] | Predicted hepatic CL [1] | Remaining Percentage ([1]; With Cofactors, 30 min) | Remaining Percentage ([1]; With Cofactors, 60 min) | Remaining Percentage ([1]; Without Cofactors, 30 min) | Remaining Percentage ([1]; Without Cofactors, 60 min) | half-life at 2 μM [2] | microsomal CLint at 2 μM [2] | CLint scaled at 2 μM [2] | Predicted hepatic CL [2] | Remaining Percentage ([2]; With Cofactors, 30 min) | Remaining Percentage ([2]; With Cofactors, 60 min) | Remaining Percentage ([2]; Without Cofactors, 30 min) | Remaining Percentage ([2]; Without Cofactors, 60 min) | fraction unbound at 6 h, 1 μM [3] | recovery at 6 h, 1 µM [3] | % Remaining @ 6 hours [3] | Remaining Percentage ([1]; With Cofactors, 0 min) | further results
COCCN1CCC[C@@H]1Cc1c[nH]c2ccc(OC)cc12 [(R) I-98, (R)-5-Methoxy-3-((1-(2-methoxyethyl)pyrrolidin-2-yl)methyl)-1H-indole] | 10 min | 138 µL/min/mg | 248 mL/min/kg | 45.13 mL/min/kg | 100.00% | 14.43% | 100.00% | 103.23% | 14.4 min | 96.3 µL/min/mg | 421 mL/min/kg | 74.16 mL/min/kg | 100.00% | 14.54% | 100.00% | 100.99% | 0.569 | 88% | 96.55% |  | 
[2H]C([2H])(c1c[nH]c2ccc(OCCCCN3C(=O)c4ccccc4C3=O)cc12)[C@H]1CCCN1C([2H])([2H])[2H] [(R) I-244, (R)-2-(4-((3-((1-(Methyl-d3)pyrrolidin-2-yl)methyl-d2)-1H-indol-5-yl)oxy)butyl)isoindoline-1,3-dione] | 6.89 min | 201 µL/min/mg | 360 mL/min/kg | 47.87 mL/min/kg | 4.90% | 0.57% | 94.87% | 87.40% | < 4.51 min | > 307 µL/min/mg | > 1340 mL/min/kg | >84.35 mL/min/kg | 0.00% | 0.00% | 98.38% | 86.59% | 0.19 | 86.5% | 85.45% | 100.00% | Remaining Percentage ([1]; Without Cofactors, 0 min): 100.00%; Remaining Percentage ([2]; With Cofactors, 0 min): 100.00%; Remaining Percentage ([2]; Without Cofactors, 0 min): 100.00%
[2H]C([2H])(c1c[nH]c2ccc(OCCCCCN3C(=O)c4ccccc4C3=O)cc12)[C@H]1CCCN1C([2H])([2H])[2H] [(R) I-245, (R)-2-(5-((3-((1-(Methyl-d3)pyrrolidin-2-yl)methyl-d2)-1H-indol-5-yl)oxy)pentyl)isoindoline-1,3-dione] | < 4.51 min | > 307 µL/min/mg | > 550 mL/min/kg | >50.17 mL/min/kg | 0.62% | 0.00% | 95.83% | 94.10% | 5.12 min | 271 µL/min/mg | 1180 mL/min/kg | 83.65 mL/min/kg | 1.72% | 0.25% | 100.00% | 93.17% |  |  |  | 100.00% | Remaining Percentage ([1]; Without Cofactors, 0 min): 100.00%; Remaining Percentage ([2]; With Cofactors, 0 min): 100.00%; Remaining Percentage ([2]; Without Cofactors, 0 min): 100.00%
